Data from patent publication US4731486A, “Hydroformylation using low volatile phosphine ligands” (Union Carbide Corporation, priority 1986, dated 1988).

Experiments:
[1] = Batch hydroformylation of hexene-1 (Example 14); details: Texanol/TPEG-990 3:1; 100° C.; 300 ppm Rh; 8.7 wt. % ligand; 75 psia 4:1 H2:CO
Experimental: (§1) Each rhodium catalytic precursor solution so prepared was then employed to hydroformylate propylene in a magnetically stirred, 100 mL capacity, stainless steel autoclave which was attached to a gas manifold for introducing gases to the desired partial pressures. The autoclave was also equipped with a pressure calibrator for determining reaction pressure to ±0.01 psia. and a platinum resistance thermometer for determining reactor solution temperatures to ±0.10° C. The reactor was heated externally by two 300 watt heating bands. The reactor solution temperature was controlled by a platinum resistance sensor connected to an external proportional temperature controller for controlling the temperature of the external band heaters.
(§2) In each non-aqueous hydroformylation reaction, about 15 milliliters (about 14 grams) of the rhodium catalytic precursor solution so prepared was charged to the autoclave reactor under nitrogen and heated to the reaction temperature employed (as given in Table 1 below). […]
(§3) The hydroformylation reaction rate in gram moles per liter per hour of C4 aldehydes produced was determined from sequential 5 psia. pressure drops in the reactor spanning the nominal operating pressure in the reactor, while the mole ratio of linear (n-butyraldehyde) to branched (2-methylpropionaldehyde) product was measured by gas chromatography and the results are given in Table 1 below. […]

[2] = Batch hydroformylation of propylene in stirred autoclave (Examples 1, 2, 11, 14, 19)
Experimental: A series of various rhodium complex catalyst precursor solutions consisting essentially of the solubilized reaction product of rhodium dicarbonyl acetylacetonate and various monosulfonated triphenylphosphine metal salt ligands were prepared and employed to hydroformylate propylene into C4 aldehydes in the following manner.
as §1
In each non-aqueous hydroformylation reaction, about 15 milliliters (about 14 grams) of the rhodium catalytic precursor solution so prepared was charged to the autoclave reactor under nitrogen and heated to the reaction temperature employed (as given in Table 1 below). The reactor was then vented down to 5 psig. and a premixed gas mixture of 1:1:1 carbon monoxide:hydrogen:propylene was introduced into the reactor via the gas manifold (partial pressures given in Table 1) and the propylene so hydroformylated.
A comparison of the catalytic activity of aqueous and non-aqueous solutions of monosulfonated triphenylphosphine sodium salt ligand promoted catalysts in hydroformylating various molecular weight alphe-olefins was determined as follows.
Both the aqueous and non-aqueous hydroformylation reactions were conducted under identical conditions with regard to temperature, rhodium and ligand concentration, hydrogen and carbon monoxide partial pressure and olefin concentration.

[3] = Continuous catalyst liquid recycle hydroformylation of octene-1 (Example 6)
Excerpt: In a continuous catalyst liquid recycle manner, an olefin starting material of octene-1 was hydroformylated for six days as follows.
The liquid recycle reactor system employed contained two 2.8 liter stainless steel stirred tank reactors, connected in series, each containing a vertically mounted agitator and a circular tubular sparger near the bottom of the reactor for feeding the syn gas. The sparger contained a plurality of holes of sufficient size to provide the desired gas flow into the liquid body. Reactor 1 contained a silicone oil shell as means of bringing the contents of the reactors up to reaction temperature while the reaction solution in Reactor 2 was heated by an electrical heater. Both reactors contained internal cooling coils for controlling the reaction temperature. Reactors 1 and 2 were connected via a line to transfer any unreacted gases from reactor 1 to reactor 2 and were further connected via a line so that a portion of the liquid reaction solution containing aldehyde product and catalyst from reactor 1 could be pumped into reactor 2 wherein the unreacted olefin of reactor 1 is further hydroformylated in reactor 2.
Each reactor also contained a pneumatic liquid level controller for automatic control of the liquid levels in the reactors. Reactor 1 further contained a line for introducing the liquid olefin using a metering pump, and a line for introducing syn gas through the sparger, while make up syn gas was added to reactor 2 via the same transfer line carrying the unreacted syn gas from reactor 1. Reactor 2 also contained a blow-off vent for removal of the unreacted gases. A line from the bottom of reactor 2 was connected to the top of a vaporizer so that a portion of the liquid reaction solution could be pumped from reactor 2 to the vaporizer. The vaporizer was maintained at reduced pressure with the help of a vacuum pump. Vaporized aldehyde was disengaged from the non-volatilized components of the liquid reaction solution in the gas-liquid separator part of the vaporizer. The remaining non-volatilized catalyst containing liquid reaction solution was pumped through a recycle line back into reactor 1. The recycle line also contained a pneumatic liquid level controller. The vaporized aldehyde product was passed into a water-cooled condenser, liquified and collected in a product receiver.

[4] = HPLC analysis of ligand concentration in hydroformylation reaction mediums; format: physicochemical; details: both reactors, six days of operation
[5] = Batch hydroformylation of tetradecene-1 (Example 14); details: Texanol/TPEG-990 3:1; 100° C.; 300 ppm Rh; 8.7 wt. % ligand; 75 psia 4:1 H2:CO
Experimental: as §1, §2, §3

[6] = Solubility of TPPMS-Na in nonanal with various added solubilizing agents; format: physicochemical
Experimental: The solubility of a monosulfonated triphenylphosphine sodium salt ligand (TPPMS-Na) having the formula [drawing 28] was measured in C9 aldehyde (nonanal) in the presence of various added solubilizing agents and various mixtures of such agents for the ligand. […] The solubilizing agents and their mixtures were employed in a 1:2 weight:weight ratio with the nonanal.

[7] = TERGITOL 15-S-3/CARBOWAX PEG 600/Dimethyl Sulfoxide (4:1:1), 100° C., 200 ppm Rh, 90 psia 1:1:1 H2:CO:C3H6
[8] = TERGITOL 15-S-7/CARBOWAX TPEG 990/N-Methyl Pyrolidone (4:1:1), 100° C., 200 ppm Rh, 90 psia 1:1:1 H2:CO:C3H6
[9] = TERGITOL 15-S-7, 100° C., 200 ppm Rh, 90 psia 1:1:1 H2:CO:C3H6
[10] = TERGITOL 24-L-75N/NIAX PPG 1025 (4:1), 100° C., 200 ppm Rh, 90 psia 1:1:1 H2:CO:C3H6
[11] = TERGITOL NP-4/CARBOWAX TPEG 990 (4:1), 100° C., 200 ppm Rh, 90 psia 1:1:1 H2:CO:C3H6
[12] = TERGITOL NP-9, 100° C., 200 ppm Rh, 90 psia 1:1:1 H2:CO:C3H6
[13] = Texanol/TPEG-990 3:1, 90° C., 300 ppm Rh, 8.7 wt. % ligand, 90 psia 1:1:1 H2:CO:C3H6
[14] = aqueous (water as solvent), 100° C., 300 ppm Rh, 90 psia 1:1:1 H2:CO:Propylene
[15] = non-aqueous (Texanol/Carbowax TPEG990 2.6:1), 100° C., 300 ppm Rh, 90 psia 1:1:1 H2:CO:Propylene
[16] = day 1, reactors 80.1/85.8, CO 17.0/9.9 psia
[17] = day 2, reactors 80.0/85.6, CO 7.8/2.2 psia
[18] = day 3, reactors 80.1/85.7, CO 8.1/6.5 psia
[19] = day 6, reactors 80.0/85.0, CO 10.1/8.3 psia

O=S(=O)([O-])c1cccc(P(c2ccccc2)c2ccccc2)c1.[Na+]
Linear/Branched Aldehyde Mole Ratio [1]: 13.4 | Reaction Rate [1]: 5.21 G moles/L/hr | Linear/Branched Aldehyde Mole Ratio ([2]; 200 ppm Rh, about 120 mole equivalents ligand, 100° C., 60 psia 1:1:1 H2:CO:C3H6, Texanol/Carbowax PEG-600 10:1): 6.4 | Reaction Rate (C4 aldehydes) ([2]; 200 ppm Rh, about 120 mole equivalents ligand, 100° C., 60 psia 1:1:1 H2:CO:C3H6, Texanol/Carbowax PEG-600 10:1, average of two runs): 0.28 Gmoles/L/Hr | Linear/Branched Aldehyde Mole Ratio [2, 7]: 5.6 | Reaction Rate (C4 aldehydes) [2, 7]: 0.25 G moles/L/hr | Linear/Branched Aldehyde Mole Ratio [2, 8]: 5.0 | Reaction Rate (C4 aldehydes) [2, 8]: 0.75 G moles/L/hr | Linear/Branched Aldehyde Mole Ratio [2, 9]: 4.7 | Reaction Rate (C4 aldehydes) [2, 9]: 0.49 G moles/L/hr | Linear/Branched Aldehyde Mole Ratio [2, 10]: 5.3 | Reaction Rate (C4 aldehydes) [2, 10]: 0.54 G moles/L/hr | Linear/Branched Aldehyde Mole Ratio [2, 11]: 6.0 | Reaction Rate (C4 aldehydes) [2, 11]: 0.59 G moles/L/hr | Linear/Branched Aldehyde Mole Ratio [2, 12]: 5.1 | Reaction Rate (C4 aldehydes) [2, 12]: 0.67 G moles/L/hr | Linear/Branched Aldehyde Mole Ratio [2, 13]: 5.0 | Reaction Rate [2, 13]: 1.72 G moles/L/hr | Linear/Branched Aldehyde Mole Ratio [2, 14]: 19.3 | Reaction Rate [2, 14]: 0.07 G Moles/L/Hr | Linear/Branched Aldehyde Mole Ratio [2, 15]: 4.8 | Reaction Rate [2, 15]: 2.60 G Moles/L/Hr | C9 Aldehydes (rate) [3, 16]: 1.02 gmoles/L/hr | Linear/Branched Aldehyde Ratio [3, 16]: 14.0 | C9 Aldehydes (rate) [3, 17]: 0.84 gmoles/L/hr | Linear/Branched Aldehyde Ratio [3, 17]: 27.2 | C9 Aldehydes (rate) [3, 18]: 0.81 gmoles/L/hr | Linear/Branched Aldehyde Ratio [3, 18]: 24.7 | C9 Aldehydes (rate) [3, 19]: 1.02 gmoles/L/hr | Linear/Branched Aldehyde Ratio [3, 19]: 22.5 | change in ligand concentration of reaction mediums [4]: no significant change | Linear/Branched Aldehyde Mole Ratio [5]: 12.6 | Reaction Rate [5]: 0.65 G moles/L/hr | TPPMS-Na Solubility ([6]; NIAX PPG-1025, 25 deg. C.): < 2 Weight Percent | TPPMS-Na Solubility ([6]; NIAX PPG-1025, 100 deg. C.): 2 Weight Percent | TPPMS-Na Solubility ([6]; TERGITOL 15-S-3/CARBOWAX PEG 600 (4:1), 25 deg. C.): 2 Weight Percent | TPPMS-Na Solubility ([6]; TERGITOL 15-S-3/CARBOWAX PEG 600 (4:1), 100 deg. C.): > 10 Weight Percent | TPPMS-Na Solubility ([6]; TERGITOL 15-S-3/CARBOWAX PEG 600/Methanol (4:1:1), 25 deg. C.): > 6 Weight Percent | TPPMS-Na Solubility ([6]; TERGITOL 15-S-3, 25 deg. C.): 2 Weight Percent | TPPMS-Na Solubility ([6]; TERGITOL 15-S-3, 100 deg. C.): 8 Weight Percent | TPPMS-Na Solubility ([6]; TERGITOL 15-S-7/CARBOWAX TPEG 990 (3:1), 25 deg. C.): 10 Weight Percent | TPPMS-Na Solubility ([6]; TERGITOL 15-S-7/CARBOWAX TPEG 990 (3:1), 100 deg. C.): 8 Weight Percent | TPPMS-Na Solubility ([6]; TERGITOL 15-S-7, 25 deg. C.): 4 Weight Percent | TPPMS-Na Solubility ([6]; TERGITOL 15-S-7, 100 deg. C.): 8 Weight Percent | TPPMS-Na Solubility ([6]; TERGITOL 24-L-15N, 25 deg. C.): 2 Weight Percent | TPPMS-Na Solubility ([6]; TERGITOL 24-L-15N, 100 deg. C.): 8 Weight Percent | TPPMS-Na Solubility ([6]; TERGITOL 24-L-50N/CARBOWAX PEG 600 (4:1), 25 deg. C.): > 10 Weight Percent
